Tests used:
[1] = system: bronchial rings from resected human lungs; test: Isometric study on human bronchial rings pre-contracted with metacholine; details: cumulative doses of ASM-002; Fig. 36
Method: (§1) As described previously, tracheal or bronchial rings were mounted isometrically to force transducers in organ baths containing Krebs bicarbonate solution at 37°C and bubbled with 95% O2- 5% CO2,pre-contracted with submaximal concentration of metacholine cumulative doses of ASM-002 added. Changes of tension are recorded.

[2] = system: bronchial rings from dog's lungs; test: Isometric study on dog bronchial rings pre-contracted with metacholine; details: cumulative doses of ASM-002; Fig. 35, p=0.004
Method: as §1

[3] = system: mouse tracheal airway smooth muscle; test: Isometric study on isolated mouse tracheal rings pre-contracted with metacholine; details: cumulative doses of ASM-002; Fig. 34, p=0.002
Method: Tracheal rings were mounted isometrically to force transducers in organ baths containing Krebs bicarbonate solution at 37°C and bubbled with 95% O2- 5% CO2, pre-contracted with submaximal concentration of metacholine (10^-5) and cumulative doses of the analogs were added to the baths. Changes of tension are recorded. Results are expressed as a percentage of maximal contraction (Fig. 29).
as §1

[4] = system: Ovalbumin-sensitized mice; test: Lung inflammation in ovalbumin-sensitized mice (cells in broncho-alveolar lavage); type: in vivo; details: intra-nasally 0.5 to 4 mg/kg/d for 3 days, n = 8, Fig. 30
Method: Ovalbumin-sensitized mice (ri=8) were challenged with the allergen and simultaneously treated intra-nasally with increasing concentrations of ASM-002 (0.5 to 4 mg/kg/d) for 3 days. The number of cells recovered by broncho-alveolar lavage was used as a measure of lung inflammation.

[5] = system: Leukotriene C4 (LTC4)production; test: LTC4 production by PAF-stimulated blood eosinophils (enzyme immunoassay); type: cell-based, Human; details: for LTC4: pre-incubated 18hours with analogs, then 1 µM PAF, untreated 1725.80
Method: Blood eosinophils, the most increased inflammatory cells in asthma, were isolated by negative selection using bead-conjugated anti-CD16 monoclonal antibody and magnetic activating cell sorting. Cells were pre-incubated for 18hours with the various DMPP analogs and then stimulated with 1 µM platelet-activating factor (PAF) to produce LTC4 which was measured by enzyme immunoassay. […] Table 1 Effects of DMPP and analogs on LTC4 release.
Leukotriene C4 (LTC4) is a inflammatory lipid mediator highly produced in asthma, it is released in large amounts by blood eosinophils.
Human blood eosinophils were isolated from blood of asthmatic patients, stimulated in vitro with platelet activating factor (PAF) to produce large amounts of LTC4 , and treated or not with 80 µM ASM-002.

[6] = system: dogs naturally sensitized to the roundworm Ascaris suum; test: Dog model of lung hyper-responsiveness (metacholine, lung resistance); type: in vivo; details: 12 hyperresponsive dogs, increasing concentrations of metacholine; Fig. 33
Method: (§2) In this model 12 dogs naturally sensitized to the roundworm Ascaris suum were used in a cross-over study design. Four groups of 3 dogs were randomly formed, exposed to the allergen, and each animal was left either untreated or received alternalively, ASM-002 (4mg/kg 2x day in the food), or prednisone (1mg/kg 1x day in the food), the most commonly used corticosteroid drug used to treat inflammation in asthma.
Hyper-responsiveness is described as the capacity of the lung to react (to increase lung resistance) to a non-specific external stimuli like metacholine or to allergens. A hyper-responsive allergen-sensitized dog (asthmatic) will react to lower concentrations of metacholine compared to a non allergic dog. Similarly, improvement in lung hyper-responsivenes is shown by an increase in metacholine concentrations necessary to induce the same level of lung resistance.
Increasing concentrations of metacholine were administered with or without treatment with ASM-002 or Prednisone™ and lung resistance recorded.

[7] = system: Ovalbumin-sensitized animals; test: Lung resistance to metacholine in mouse model of asthma (Flexi-vent); type: in vivo, mice; details: ASM-002 4mg/kg intra-nasally 3 days and 10 minutes prior to challenge; Salbutamol 10 minutes before; Fig. 31
Method: Lung response to a broncho-constrictive agent, metacholine, was measured by a Flexi-vent® apparatus. Ovalbumin-sensitized animals were treated intra-nasally with ASM-002 (4mg/kg) during 3 days and 10 minutes prior to the metacholine challenge and compared to untreated OVA-sensitized animals. A negative control group of un-sensitized animals and a positive control group that received Salbutamol (Ventolin) 10 minutes before the metacholine challenge were also included.

[8] = system: dogs naturally sensitized to the roundworm Ascaris suum; test: Dog asthma model: cellular inflammation in bronchoalveolar lavages; type: in vivo; details: ASM-002 8 mg/kg (4mg/kg 2x day in the food), prednisone 1mg/kg 1x day in the food, n = 12; Fig. 32
Method: as §2
Cellular inflammation was evaluated in the bronchoalveolar lavages.

[9] = system: Tumor necrosis factor (TNF) release; test: TNF release by LPS-stimulated human blood monocytes (ELISA); type: cell-based
Method: Human monocytes were isolated from the blood of asthmatic patients by Ficoll-paque density gradient, let to adhere to tissue culture plates and stimulated with LPS (100ng/ml) for 18 hours at 37°C with or without increasing concentrations of nicotine. The release of TNF, a potent pro-inflammatory mediator, was measured in the cell culture supernatant by the ELISA method. Results are expressed as a percentage release from LPS-stimulated untreated cells (Fig. 28).
Tumor necrosis factor (TNF) is a mediator released in inflammatory states. Human blood monocytes were stimulated in vitro with lipopolysaccharide (LPS) to produce large amounts of TNF, increasing doses of ASM-002 were added and the levels of TNF were measured (Fig. 37, EC50= 3µM, n=6, p= 0,0045 at 5 µm, 0,0014 at 10 µm and 0,0003 at 50 µm).

1,1-dimethyl-4-phenylhomopiperazinium iodide [ASM-002]
relaxing effect on pre-contracted bronchi [1]: relaxing effect
relaxing effect on pre-contracted bronchi [2]: relaxing effect
relaxing effect on pre-contracted tracheas [3]: relaxing effect
ED50, cellular inflammation in the lungs [4]: 0.71 mg/kg
LTC4 production ([5]; 80 µM, PAF-stimulated eosinophils of asthmatic patients, 6 patients, Fig. 39, p=0.0007): significant inhibition
LTC4 [5]: 246.40 pg/mL
dogs with decreased lung resistance / improved hyper-responsiveness [6]: 7 out of 12
lung resistance induced by metacholine [7]: significant reduction (return to baseline levels)
cellular inflammation in the lungs [8]: inhibits significantly the cellular inflammation
EC50 ([9]; LPS-stimulated human blood monocytes, increasing doses, n=6, Fig. 37, read-out: EC50, inhibition of TNF release): 3000 nM
TNF release ([9]; all drugs at 40 µM, mean of 5 subjects, Fig. 38): inhibits TNF release

CCC[N+]1(C)CCN(c2ccccc2)CC1 [ASM-004]
LTC4 [5]: 601.60 pg/mL

CC[N+]1(CC)CCN(c2ccccc2)CC1 [ASM-005]
TNF release ([9]; monocytes from asthmatic patients, LPS (100ng/ml) 18 hours at 37°C, increasing concentrations, Fig. 28): Except for ASM-005, all analogs tested had an inhibitory effect on TNF release

C[N+]1(C)CCN(c2ccccc2)CC1 [DMPP, Dimethylphenylpiperazinium, reference compound]
LTC4 [5]: 545.00 pg/mL

C[C@]12C=CC(=O)C=C1CC[C@@H]1[C@@H]2C(=O)C[C@@]2(C)[C@H]1CC[C@]2(O)C(=O)CO [Prednisone, prednisone, reference compound]
dogs with decreased lung resistance / improved hyper-responsiveness [6]: None of the 12 dogs

CC(C)(C)NCC(O)c1ccc(O)c(CO)c1 (stereo not shown) [Salbutamol, reference compound]
lung resistance induced by metacholine [7]: This effect is similar to that obtained with Salbutamol

From patent publication EP1773779B1, “NICOTINIC RECEPTOR AGONISTS FOR THE TREATMENT OF INFLAMMATORY DISEASES” (Université Laval, priority 2004, dated 2006)
